Source: US4716159A, “Pyridazino[4,3-c]-isoquinolines having anti-anxiety activity” (Gruppo Lepetit, S.p.A., priority 1983, dated 1987)
pKi: −log10 of the molar value.

What was measured:
[1] = test system: benzodiazepine receptor; experiment: benzodiazepine receptor test (displacement of 3H-diazepam from rat brain receptors); type: binding; details: for Inhibition % of the 3H diazepam binding: test compound at 3,6 μM; for pKi: 3H-diazepam, unit inferred
Description: The anti-anxiety activity of the compounds of the present invention was first detected by submitting some representative compounds to the benzodiazepine receptor test. […] Our experiments were carried out by following the method described by H. Moand T. Okada in Life Sciences, Vol. 20, 2101-2110 (1977).
of the test compound of 3,6 μM.

[2] = test system: rats; experiment: conflict test in rats (punished responding, Vogel method as modified by Lippa); type: in vivo, rat; details: i.p., 60 minutes after administration; for minimal effective dose: Rattus norvegicus, ip, 1 h, read-out: MED (minimal effective dose which significantly increased the number of shocks)
Description: The ability of the compounds of the present invention to increase punished responding in animals in a conflict situation, a procedure with high validity for predicting the anxiolytic effect of drugs, was assessed by testing these compounds in rats according to the method described by J. R. Vogel, B. Beer, D. E. Clody in Psycopharmacologia 21, 1-7, (1971) as modified by A. S. Lippa et al., in "Anxiolytics, Industrial Pharmacology",Vol. 3, Futura Publishing, 1979, pages 41-81.
Briefly, rats are deprived of water for 48 hours and deprived of food for 20 hours prior to testing. Sixty minutes after administration of the test compound each rat is placed in an specially equipped cage. A glucose solution is available from a tap located in the rear of the cage. A constant pulsating shocking current is connected between the grid floor and the tap. Each rat is allowed 20 seconds of non-shocked drinking, then cycles of 5 seconds shock-off and 5 seconds shock-on began. During the shock-on period each lick on the top is accompanied by shock. The number of shocks received by each animal is recorded and minimal effective doses are determined.

[3] = test system: mice; experiment: antipentylenetetrazole assay in mice; type: in vivo; details: for prevention of tonic extensor seizures (pentylenetetrazole): pentylenetetrazole 140 mg/kg s.c., compound 30 min before
Description: The antipentylenetetrazole assay in mice have been carried out by essentially following the methodology described by Berger in J. Pharm. Exptl. Ther. 104, 468, (1952). A fatal dose of pentylenetetrazole (140 mg/kg, s.c.) was administered to groups of ten mice each, treated, 30 minutes before the administration of the convulsant agent, with a selected dose of the test compound.

[4] = test system: mice; experiment: anti-bicuculline test in mice; type: in vivo; details: for prevention of seizures (bicuculline): i.p. (highest dose tested), bicuculline 2 mg/kg s.c., compound 30 min before
Description: The experiments were conducted essentially following the methodology described by P. De La Mora et R. Tapia in Biochem. Pharmac. 22, 2635-2639 (1973). A dose of bicuculline (2 mg/kg, s.c.) was administered to groups of ten mice each which had been given a fixed dose of the text compound 30 minutes before treatment. […] The significance of this fact has not yet been completely clarified since it was first described only recently for two quinoline derivatives (see G. Le Fur et al., Life Sci., 28, 1439-1448 (1981)). […] The favourable pharmacological properties of the compounds of the present invention are accompanied by a generally low toxicity, as in fact the acute toxicity of the compounds of the present invention is in general from 200 to more than 600 mg/kg, i.p. In view of the above, the use of the compounds of the present invention as anticonvulsant and antianxiety agents is a further specific object of the present invention. With the term "use" it is intended to refer to all industrially applicable aspects and acts of said use, including the embodiment of the novel compounds into pharmaceutical compositions.

[5] = 100 mg/kg (highest dose tested)

Row | Compound | Inhibition % of the 3H diazepam binding [1] [%] | pKi [1] | minimal effective dose [2] [mg/kg] | prevention of tonic extensor seizures (pentylenetetrazole) ([3]; 50 mg/kg (highest dose tested)) | prevention of seizures (bicuculline) ([4]; 100 mg/kg) | further results
1 | Clc1ccc(-c2cc3nc(N4CCCC4)c4ccccc4c3nn2)cc1 [Example 27, 3-(4-Chlorophenyl)-6-(l-pyrrolidinyl)pyridazino[4,3-c]isoquinoline] | -63 | – | – | – | – | –
2 | CCN(C)c1nc2cc(-c3ccccc3)nnc2c2ccccc12 [Example 3, N-ethyl-3-phenyl-N-methylpyridazino-[4,3-c]-isoquinolin-6-amine] | – | 7.19 | 10 | – | – | prevention of tonic extensor seizures (pentylenetetrazole) [3, 5]: failed to prevent tonic extensor seizures; prevention of seizures (bicuculline) ([4]; 50 mg/kg): uneffective
3 | COc1ccc(-c2cc3nc(N4CCCC4)c4ccccc4c3nn2)cc1 [Example 18] | – | 7.73 | 20 | uneffective | failed to prevent seizures | –
4 | CC(O)CN(C)c1nc2cc(-c3ccccc3)nnc2c2ccccc12 (centres unmarked) [Example 4, 1-[(3-Phenyl-pyridazino[4,3-c]isoquinolin-6-yl)methylamino]-2-propanol] | – | 6.87 | 30 | – | – | prevention of tonic extensor seizures (pentylenetetrazole) [3, 5]: failed to prevent tonic extensor seizures; prevention of seizures (bicuculline) ([4]; 50 mg/kg): uneffective
5 | 3-Methyl-pyridazino[4,3-c]isoquinoline [Example 32] | – | 6.61 | – | uneffective | failed to prevent seizures | MED (minimal effective dose which significantly increased the number of shocks) [2]: 20 Mg/Kg
6 | CN1C(=O)CN=C(c2ccccc2)c2cc(Cl)ccc21 [Diazepam, reference compound] | – | – | – | – | – | ED50 ([3]; Mus musculus, ip, 0.5 h, i.p., same experiment, read-out: ED50 (dose which prevents tonic extension seizures in 50% of the treated animals), pentylenetetrazole): 0.2 mg/kg; ED50 ([4]; Mus musculus, ip, 0.5 h, i.p., same experiment, read-out: ED50 (dose which prevents tonic extensor seizures in 50% of the treated animals), bicuculline): 0.18 mg/kg
7 | c1ccc(-c2cc3nc(N4CCCC4)c4ccccc4c3nn2)cc1 [Example 5, 3-phenyl-6-(1-pyrrolidinyl)pyridazino-[4,3-c]isoquinoline] | – | 7.94 | 5 | – | – | prevention of tonic extensor seizures (pentylenetetrazole) [3, 5]: failed to prevent tonic extensor seizures; prevention of seizures (bicuculline) ([4]; 50 mg/kg): uneffective
8 | c1ccc(-c2cc3nc(N4CCOCC4)c4ccccc4c3nn2)cc1 [Example 6, 3-Phenyl-6-(4-morpholinyl)pyridazino[4,3-c]-isoquinoline] | – | 6.82 | 15 | – | – | prevention of tonic extensor seizures (pentylenetetrazole) [3, 5]: failed to prevent tonic extensor seizures; prevention of seizures (bicuculline) ([4]; 50 mg/kg): uneffective
9 | COc1ccc(-c2cc3nc(N4CCOCC4)c4ccccc4c3nn2)cc1 [Example 20, 3-(4-Methoxyphenyl)-6-(4-morpholinyl)-pyridazino[4,3-c]isoquinoline] | -76 | – | 30 | uneffective | failed to prevent seizures | –
10 | COCCN(CCOC)c1nc2cc(-c3ccc(OC)cc3)nnc2c2ccccc12 [Example 15, N,N-bis(2-methoxyethyl)-3-(4-methoxyphenyl)pyridazino[4,3-c]isoquinolin-6-amine] | – | 5.93 | 10 | uneffective | failed to prevent seizures | –
11 | COc1ccc(-c2cc3nc(N(C)C)c4ccccc4c3nn2)cc1 [Example 13, N,N-dimethyl-3-(4-methoxyphenyl)pyridazino[4,3-c]isoquinolin-6-amine] | – | 7.20 | 10 | uneffective | failed to prevent seizures | –
12 | CCOC(=O)CCCN(C)c1nc2cc(-c3ccc(OC)cc3)nnc2c2ccccc12 [Example 16] | -69 | – | – | – | – | –
13 | COc1ccc(-c2cc3nc(N(C)CC(C)O)c4ccccc4c3nn2)cc1 (centres unmarked) [Example 14] | – | 6.66 | 30 | uneffective | failed to prevent seizures | –
14 | CCOc1nc2cc(-c3ccccc3)nnc2c2ccccc12 [Example 9, 6-Ethoxy-3-phenyl-pyridazino [4,3-c]isoquinoline] | – | 5.83 | – | – | – | –
15 | COCCOc1nc2cc(-c3ccc(OC)cc3)nnc2c2ccccc12 [Example 24, 6-(2-Methoxyethoxy)-3-(4-methoxyphenyl)pyridazino[4,3-c]isoquinoline] | -47 | – | – | – | – | –
16 | CN(C)c1nc2cc(-c3ccccc3)nnc2c2ccccc12 [Example 2, 3-Phenyl-N,N-dimethyl-pyridazino-[4,3-c]-isoquinolin-6-amine] | – | 7.55 | 10 | uneffective | failed to prevent seizures | –
17 | COc1ccc(-c2cc3nc(N4CCC4)c4ccccc4c3nn2)cc1 [Example 17, 6-(1-Azetidinyl)-3-(4-methoxyphenyl)pyridazino[4,3-c]isoquinoline] | – | 6.89 | 30 | uneffective | failed to prevent seizures | –
18 | CCOC(=O)C1CCN(c2nc3cc(-c4ccc(OC)cc4)nnc3c3ccccc23)CC1 [Example 21] | -39 | – | – | – | – | –
19 | CCOC(=O)N1CCN(c2nc3cc(-c4ccc(OC)cc4)nnc3c3ccccc23)CC1 [Example 22] | -61 | – | – | – | – | –
20 | COc1ccc(-c2cc3nc(N4CCCCC4)c4ccccc4c3nn2)cc1 [Example 19, 3-(4-Methoxyphenyl)-6-(1-piperidinyl)-pyridazino[4,3-c]isoquinoline] | -70 | – | 10 | uneffective | failed to prevent seizures | –
21 | Clc1nc2cc(-c3ccccc3)nnc2c2ccccc12 [Example 1, 6-Chloro-3-phenyl-pyridazino-[4,3-c]-isoquinoline] | -36 | – | – | – | – | –
22 | CC(C)Oc1nc2cc(-c3ccccc3)nnc2c2ccccc12 [Example 10] | – | 5.72 | – | – | – | –
